Test system: 598228-144-R-J1-PDC complex spheroid viability
Test: Anticancer human tumor 598228-144-R-J1-PDC patient-derived serous endometrial adenocarcinoma cell line growth inhibition [GQUAD]
Conditions: for IC50: curve of first compound; for viability, T/C: stronger effect = lower value
How it was run: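 Tumor cells were grown as complex spheroids with HUVEC endothelial cells and mesenchymal stem cells as stroma. G-quadruplex stabilizers were combined with targeted agents over half-log dilutions from near the clinical Cmax, or from 10 microM.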

[1] = second compound 0.0316 µM, first compound 0.0316 µM
[2] = second compound 0.0316 µM, first compound 0.1 µM
[3] = second compound 0.0316 µM, first compound 0.316 µM
[4] = second compound 0.0316 µM, first compound 1 µM
[5] = second compound 0.0316 µM, first compound 3.16 µM
[6] = second compound 0.0316 µM, first compound 10 µM
[7] = second compound 0.1 µM, first compound 0.0316 µM
[8] = second compound 0.1 µM, first compound 0.1 µM
[9] = second compound 0.1 µM, first compound 0.316 µM
[10] = second compound 0.1 µM, first compound 1 µM
[11] = second compound 0.1 µM, first compound 3.16 µM
[12] = second compound 0.1 µM, first compound 10 µM
[13] = second compound 0.316 µM, first compound 0.0316 µM
[14] = second compound 0.316 µM, first compound 0.1 µM
[15] = second compound 0.316 µM, first compound 0.316 µM
[16] = second compound 0.316 µM, first compound 1 µM
[17] = second compound 0.316 µM, first compound 3.16 µM
[18] = second compound 0.316 µM, first compound 10 µM
[19] = second compound 1 µM, first compound 0.0316 µM
[20] = second compound 1 µM, first compound 0.1 µM
[21] = second compound 1 µM, first compound 0.316 µM
[22] = second compound 1 µM, first compound 1 µM
[23] = second compound 1 µM, first compound 3.16 µM
[24] = second compound 1 µM, first compound 10 µM
[25] = second compound 3.16 µM, first compound 0.0316 µM
[26] = second compound 3.16 µM, first compound 0.1 µM
[27] = second compound 3.16 µM, first compound 0.316 µM
[28] = second compound 3.16 µM, first compound 1 µM
[29] = second compound 3.16 µM, first compound 3.16 µM
[30] = second compound 3.16 µM, first compound 10 µM
[31] = second compound 10 µM, first compound 0.0316 µM
[32] = second compound 10 µM, first compound 0.1 µM
[33] = second compound 10 µM, first compound 0.316 µM
[34] = second compound 10 µM, first compound 1 µM
[35] = second compound 10 µM, first compound 3.16 µM
[36] = second compound 10 µM, first compound 10 µM
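Note: spheroids exposed to the agents for one week before reading.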
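Throughout, for viability, T/C: percent of vehicle DMSO control viability so 100% = untreated growth.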

`COc1ccc([C@@H](O)c2cc(-c3ncnc4cc(N5CCOCC5)ccc34)c(F)cc2Cl)nn1` + CN(C)c1ccc(Nc2c3ccc(NC(=O)CCN4CCCC4)cc3nc3cc(NC(=O)CCN4CCCC4)ccc23)cc1 gave an IC50 (second compound 0.0316 µM) of 2.6 µM, an IC50 (second compound 0.1 µM) of 3.83 µM and an IC50 (second compound 0.316 µM) of 2.3 µM. For the same compound, the IC50 (second compound 1 µM) was 2.3 µM, the IC50 (second compound 3.16 µM) was 2.46 µM and the IC50 (second compound 10 µM) was 0.79 µM. It also gave a viability, T/C [1] of 96.4%, a viability, T/C [2] of 77.6% and a viability, T/C [3] of 73.4%. The viability, T/C [4] was 68.2%, the viability, T/C [5] was 44% and the viability, T/C [6] was 32.5%. For the same compound, the viability, T/C [7] was 121%, the viability, T/C [8] was 94.4% and the viability, T/C [9] was 90.5%. It also gave a viability, T/C [10] of 68.4%, a viability, T/C [11] of 52.2% and a viability, T/C [12] of 36.4%. It also gave a viability, T/C [13] of 89.8%, a viability, T/C [14] of 91.1% and a viability, T/C [15] of 79.3%. The viability, T/C [16] was 64.4%, the viability, T/C [17] was 44.9% and the viability, T/C [18] was 29.5%. For the same compound, the viability, T/C [19] was 110%, the viability, T/C [20] was 91.6% and the viability, T/C [21] was 76.3%. The viability, T/C [22] was 53.3%, the viability, T/C [23] was 52% and the viability, T/C [24] was 33.7%. It also gave a viability, T/C [25] of 117%, a viability, T/C [26] of 108% and a viability, T/C [27] of 103%. For the same compound, the viability, T/C [28] was 58.8%, the viability, T/C [29] was 53.6% and the viability, T/C [30] was 26.2%. For the same compound, the viability, T/C [31] was 106%, the viability, T/C [32] was 73.6% and the viability, T/C [33] was 76.3%. It also gave a viability, T/C [34] of 43.3%, a viability, T/C [35] of 26.4% and a viability, T/C [36] of 20.1%.
Work on `O=C(c1cc(Cc2n[nH]c(=O)c3ccccc23)ccc1F)N1CCN(C(=O)C2CC2)CC1` + Cc1cnc(CNC(=O)c2c(=O)c3ccc(N4CCCN(C)CC4)nc3n3c2sc2ccccc23)cn1 yielded an IC50 (second compound 0.0316 µM) greater than 10 µM, an IC50 (second compound 0.1 µM) greater than 10 µM and an IC50 (second compound 0.316 µM) of 9.02 µM. It also gave an IC50 (second compound 1 µM) greater than 10 µM, an IC50 (second compound 3.16 µM) greater than 10 µM and an IC50 (second compound 10 µM) of less than 0.0316 µM. For the same compound, the viability, T/C [1] was 82.4%, the viability, T/C [2] was 89.4% and the viability, T/C [3] was 73%. It also gave a viability, T/C [4] of 68.7%, a viability, T/C [5] of 84.4% and a viability, T/C [6] of 63.2%. It also gave a viability, T/C [7] of 70.9%, a viability, T/C [8] of 75.6% and a viability, T/C [9] of 63.8%. It also gave a viability, T/C [10] of 63.1%, a viability, T/C [11] of 63% and a viability, T/C [12] of 67.8%. The viability, T/C [13] was 57%, the viability, T/C [14] was 60.9% and the viability, T/C [15] was 68.1%. For the same compound, the viability, T/C [16] was 65.2%, the viability, T/C [17] was 58.8% and the viability, T/C [18] was 49.1%. For the same compound, the viability, T/C [19] was 62.2%, the viability, T/C [20] was 51.3% and the viability, T/C [21] was 55.7%. For the same compound, the viability, T/C [22] was 54.1%, the viability, T/C [23] was 72.3% and the viability, T/C [24] was 56%. For the same compound, the viability, T/C [25] was 58.1%, the viability, T/C [26] was 57.8% and the viability, T/C [27] was 67.9%. It also gave a viability, T/C [28] of 53.2%, a viability, T/C [29] of 57.3% and a viability, T/C [30] of 48.9%. The viability, T/C [31] was 41.5%, the viability, T/C [32] was 49.6% and the viability, T/C [33] was 40.6%. It also gave a viability, T/C [34] of 56.8%, a viability, T/C [35] of 73.1% and a viability, T/C [36] of 47.3%.
`CC1COCCN1c1cc(C2(S(C)(=N)=O)CC2)nc(-c2ccnc3[nH]ccc23)n1` (stereo not drawn) + Cc1[nH]c2ccc(F)cc2c1-c1nc2c3cccnc3c3ncccc3c2[nH]1 was tested, and the IC50 (second compound 0.0316 µM) was greater than 10 µM, the IC50 (second compound 0.1 µM) was 5.23 µM and the IC50 (second compound 0.316 µM) was 0.914 µM. The IC50 (second compound 1 µM) was 0.551 µM, the IC50 (second compound 3.16 µM) was less than 0.0316 µM and the IC50 (second compound 10 µM) was 0.629 µM. It also gave a viability, T/C [1] of 114%, a viability, T/C [2] of 108% and a viability, T/C [3] of 89.2%. The viability, T/C [4] was 69.9%, the viability, T/C [5] was 73% and the viability, T/C [6] was 50%. For the same compound, the viability, T/C [7] was 106%, the viability, T/C [8] was 100% and the viability, T/C [9] was 97.7%. For the same compound, the viability, T/C [10] was 87.1%, the viability, T/C [11] was 56.9% and the viability, T/C [12] was 40.5%. It also gave a viability, T/C [13] of 97.3%, a viability, T/C [14] of 94.4% and a viability, T/C [15] of 69%. It also gave a viability, T/C [16] of 47%, a viability, T/C [17] of 52.9% and a viability, T/C [18] of 43.3%. The viability, T/C [19] was 58%, the viability, T/C [20] was 59.7% and the viability, T/C [21] was 58.9%. For the same compound, the viability, T/C [22] was 40.5%, the viability, T/C [23] was 45.1% and the viability, T/C [24] was 34.5%. The viability, T/C [25] was 36.9%, the viability, T/C [26] was 42.2% and the viability, T/C [27] was 39.2%. It also gave a viability, T/C [28] of 36.8%, a viability, T/C [29] of 39.7% and a viability, T/C [30] of 35.6%. For the same compound, the viability, T/C [31] was 60.3%, the viability, T/C [32] was 53.8% and the viability, T/C [33] was 59.4%. It also gave a viability, T/C [34] of 43.1%, a viability, T/C [35] of 44.6% and a viability, T/C [36] of 41.5%.
`COc1ncnc(C2CC2)c1-c1ncc2cnn(Cc3ccc(-c4nc(C(F)(F)F)cn4C(C)C)cc3)c2n1` + Cc1cnc(CNC(=O)c2c(=O)c3ccc(N4CCCN(C)CC4)nc3n3c2sc2ccccc23)cn1 showed an IC50 (second compound 0.0316 µM) greater than 10 µM, an IC50 (second compound 0.1 µM) greater than 10 µM and an IC50 (second compound 0.316 µM) greater than 10 µM. For the same compound, the IC50 (second compound 1 µM) was greater than 10 µM, the IC50 (second compound 3.16 µM) was greater than 10 µM and the IC50 (second compound 10 µM) was less than 0.0316 µM. The viability, T/C [1] was 81%, the viability, T/C [2] was 88.8% and the viability, T/C [3] was 72.9%. It also gave a viability, T/C [4] of 86.8%, a viability, T/C [5] of 102% and a viability, T/C [6] of 85.4%. The viability, T/C [7] was 67.3%, the viability, T/C [8] was 79.3% and the viability, T/C [9] was 95.1%. For the same compound, the viability, T/C [10] was 68.4%, the viability, T/C [11] was 63.9% and the viability, T/C [12] was 78.2%. It also gave a viability, T/C [13] of 82.6%, a viability, T/C [14] of 77.5% and a viability, T/C [15] of 60.9%. It also gave a viability, T/C [16] of 73.4%, a viability, T/C [17] of 80.7% and a viability, T/C [18] of 65.2%. For the same compound, the viability, T/C [19] was 77.6%, the viability, T/C [20] was 76.4% and the viability, T/C [21] was 69.8%. The viability, T/C [22] was 62.8%, the viability, T/C [23] was 71.2% and the viability, T/C [24] was 90%. The viability, T/C [25] was 62.3%, the viability, T/C [26] was 65.9% and the viability, T/C [27] was 60.5%. It also gave a viability, T/C [28] of 53.8%, a viability, T/C [29] of 57.8% and a viability, T/C [30] of 65.1%. For the same compound, the viability, T/C [31] was 38.7%, the viability, T/C [32] was 24.8% and the viability, T/C [33] was 31.6%. The viability, T/C [34] was 24.8%, the viability, T/C [35] was 34.6% and the viability, T/C [36] was 23.6%.

Reference: PubChem BioAssay AID2060506 (Molecular Pharmacology Branch, DTP, NCI, 2025)
